Test results published in US5932548A, “Lysine containing peptides for treatment of heart disease” (priority 1998, dated 1999).
Non-standard residues stand in square brackets, D forms with d. Residues, ends and D or L forms follow the SMILES beside them. dTrp(2-Me) = Cc1[nH]c2ccccc2c1C[C@@H](N)C(=O)O

Experiments:
rats = assay: GH releasing effect in rats; type: in vivo, rat
Method: (§1) In the examples that follow, data is presented for the most preferred lysine containing peptides of the invention. The GH releasing effect was measured in rats according to the method described by R. Deghenghi et al., Life Sci. 54: 1321-1328 (1994). The cardiac protection of the instant peptides has been measured essentially as described in the above cited publication by V. De Gennaro Colonna et al., Europ. J. Pharmacol. 334:201-207 (1997).

isolated rat hearts = assay: coronary perfusion pressure (CPP) in isolated rat hearts; settings: versus saline treatment (no peptide)
Method: as §1
The effects on coronary perfusion pressure ("CPP") in isolated rat hearts have been measured using Hexarelin (His-D-Mrp-Ala-Trp-D-Phe-Lys-NH2) as reference compound and compared to that for the GH antagonist His-D-Mrp-D-Lys-Trp-D-Phe-Lys-NH2. An increase of CPP over a saline treatment (i.e., no peptide) of 110±10% was found for Hexarelin, but an increase of 160±25% was found for the antagonist.

[1] = test system: growth hormone deficient rats; settings: De Gennaro Colonna et al. 1997; cited from earlier work

Compound	GH liberation (rats)	increase of CPP over a saline treatment (isolated rat hearts) [%]	effect on cardiac dysfunction [1]
His-D-Mrp-D-Lys-Trp-D-Phe-Lys-NH2	does not liberate GH	160±25	
Cc1[nH]c2ccccc2c1C[C@@H](NC(=O)[C@@H](N)Cc1cnc[nH]1)C(=O)N[C@@H](C)C(=O)N[C@@H](Cc1c[nH]c2ccccc12)C(=O)N[C@H](Cc1ccccc1)C(=O)N[C@@H](CCCCN)C(N)=O [Hexarelin, His-D-Mrp-Ala-Trp-D-Phe-Lys-NH2] (H-H[dTrp(2-Me)]AW[dF]K-NH2)		110±10	reverse the worsening of cardiac dysfunction
